Data as given in patent US9340819B2, “Method for detecting the presence of carbapenemase-producing bacteria in a sample” (priority 2011, dated 2016).
≈ marks a conversion by molar mass, not a printed value.

Legend:
P. fluorescens = test: Susceptibility testing by Etest on Mueller-Hinton agar (Example 3); assay type: cell-based; settings: Pseudomonas fluorescens
Experimental: (§1) Susceptibility testing was performed using the Etest® (bioMérieux; La Balmes-les-Grottes, France) on Mueller-Hinton agar plates (Becton Dickinson, Le Pont de Chaix, France) at 37° C. and results were recorded according to US guidelines (CLSI), as updated in 2012. The breakpoints for imipenem, meropenem and doripenem are as follows; susceptibility (S)≦2, and resistance (R)≧8 μg/ml.

P. stutzeri = test: as above; assay type: cell-based; settings: Stutzerimonas stutzeri
Experimental: as §1

P. putida = test: as above; assay type: cell-based; settings: Pseudomonas putida
Experimental: as §1

P. stuartii = test: MIC of carbapenem by Etest (Example 2); assay type: cell-based, Providencia stuartii; settings: P. stuartii NDM-1, n=1
Experimental: (§2) All strains had previously been characterized for their β-lactamase content at the molecular level. Minimum inhibitory concentration of carbapenem were determined using the Etest® (AB bioMérieux, Solna, Sweden) and results were recorded according to US guidelines (CLSI), as updated in 2011.

S. marcescens = test: MIC of carbapenem by Etest (Example 2); assay type: cell-based, Serratia marcescens
Experimental: as §2

E. aerogenes = test: MIC of carbapenem by Etest (Example 2); assay type: cell-based, Enterobacter aerogenes
Experimental: as §2

C. freundii = test: MIC of carbapenem by Etest (Example 2); assay type: cell-based, Citrobacter freundii
Experimental: as §2

E. cloacae = test: MIC of carbapenem by Etest (Example 2); assay type: cell-based, Enterobacter cloacae
Experimental: as §2

P. rettgeri = test: MIC of carbapenem by Etest (Example 2); assay type: cell-based, Proteus rettgeri
Experimental: as §2

E. sakazaki = test: MIC of carbapenem by Etest (Example 2); assay type: cell-based; settings: ESBL + decreased membrane permeability; E. sakazaki CTX-M-15, n=1
Experimental: as §2

Salmonella spp. = test: MIC of carbapenem by Etest (Example 2); assay type: cell-based; settings: Salmonella spp. KPC-2, n=1
Experimental: as §2

K. ozonae = test: MIC of carbapenem by Etest (Example 2); assay type: cell-based; settings: K. ozonae KPC-3, n=1
Experimental: as §2

E. asburiae = test: MIC of carbapenem by Etest (Example 2); assay type: cell-based, Enterobacter asburiae; settings: E. asburiae IMI-2, n=1
Experimental: as §2

E. coli = test: MIC of carbapenem by Etest (Example 2); assay type: cell-based, Escherichia coli
Experimental: as §2

M. morganii = test: MIC of carbapenem by Etest (Example 2); assay type: cell-based, Morganella morganii; settings: Plasmid mediated AmpC or chromosomal AmpC + decreased membrane permeability; M. morganii Overexpressed cephalosporinase, n=2
Experimental: as §2

P. mirabilis = test: MIC of carbapenem by Etest (Example 2); assay type: cell-based, Proteus mirabilis; settings: Plasmid mediated AmpC or chromosomal AmpC + decreased membrane permeability; P. mirabilis ACC-1, n=1
Experimental: as §2

K. pneumoniae = test: MIC of carbapenem by Etest (Example 2); assay type: cell-based, Klebsiella pneumoniae
Experimental: as §2

C[C@@H](O)[C@H]1C(=O)N2C(C(=O)O)=C(S[C@@H]3CN[C@H](C(=O)N(C)C)C3)[C@H](C)[C@H]12 [MER, meropenem]
MIC (P. fluorescens; P. fluorescens COU, VIM-2): > 32 ng/mL
MIC (P. fluorescens; P. fluorescens, BIC-1): 4 ng/mL (≈ 0.0104 µM)
MIC (P. stutzeri; P. stutzeri 13, DIM-1): > 32 ng/mL
MIC (P. stutzeri; P. stutzeri P511503100, VIM-2): > 32 ng/mL
MIC (P. stutzeri; P. stutzeri PB207, IMP-1): 4 ng/mL (≈ 0.0104 µM)
MIC (P. putida; CIP55, P. putida CIP 55-5, wild type, none): 3 ng/mL (≈ 0.00782 µM)
MIC (P. putida; P. putida 9335, VIM-2): > 32 ng/mL
MIC (P. putida; P. putida NTU 91/99, VIM-2): > 32 ng/mL
MIC (P. putida; P. putida NTU 92/99, IMP-1): 0.19 ng/mL (≈ 0.000495 µM)
MICs range (P. stuartii): 1.5 mg/L
MICs range (S. marcescens; S. marcescens IMP-11, n=1): 2 mg/L
MICs range (S. marcescens; S. marcescens KPC-2, n=2): >32 mg/L
MICs range (S. marcescens; S. marcescens SME-1, n=1): 12 mg/L
MICs range (S. marcescens; S. marcescens SME-2, n=1): 12 mg/L
MICs range (S. marcescens; S. marcescens VIM-2, n=1): >32 mg/L
MICs range (E. aerogenes; E. aerogenes KPC-2, n=1): 8 mg/L
MICs range (E. aerogenes; Plasmid mediated AmpC or chromosomal AmpC + decreased membrane permeability, E. aerogenes Overexpressed cephalosporinase, n=1): 0.75 mg/L
MICs range (C. freundii; C. freundii KPC-2, n=2): 1.5 to 3 mg/L
MICs range (C. freundii; C. freundii NDM-1, n=1): >32 mg/L
MICs range (C. freundii; ESBL + decreased membrane permeability, C. freundii TEM-3, n=1): 1 mg/L
MICs range (E. cloacae; E. cloacae GES-5, n=1): >32 mg/L
MICs range (E. cloacae; E. cloacae IMP-8, n=2): 0.5 to 1 mg/L
MICs range (E. cloacae; E. cloacae KPC-2, n=7): 0.75 to 16 mg/L
MICs range (E. cloacae; E. cloacae NDM-1, n=1): 2 mg/L
MICs range (E. cloacae; E. cloacae NMC-A, n=1): 16 mg/L
MICs range (E. cloacae; E. cloacae OXA-48, n=3): 0.5 to 1.5 mg/L
MICs range (E. cloacae; ESBLs, E. cloacae CTX-M-15, n=3): 0.12 mg/L
MICs range (E. cloacae; ESBLs, E. cloacae VEB-1, n=1): 0.12 mg/L
MICs range (P. rettgeri; P. rettgeri NDM-1, n=1): 1.5 mg/L
MICs range (P. rettgeri; P. rettgeri OXA-181, n=1): 2 mg/L
MICs range (E. sakazaki): 0.25 mg/L
MICs range (Salmonella spp.): 0.25 mg/L
MICs range (K. ozonae): 2 mg/L
MICs range (E. asburiae): >32 mg/L
MICs range (E. coli; E. coli IMP-1, n=2): 0.5 to 1 mg/L
MICs range (E. coli; E. coli IMP-8, n=1): 3 mg/L
MICs range (E. coli; E. coli KPC-2, n=5): 0.5 to 2 mg/L
MICs range (E. coli; E. coli NDM-1, n=7): 1 to 16 mg/L
MICs range (E. coli; E. coli OXA-48, n=6): 0.12 to 1 mg/L
MICs range (E. coli; E. coli VIM-1, n=2): 0.5 to 1 mg/L
MICs range (E. coli; E. coli VIM-2, n=2): 0.38 to 0.5 mg/L
MICs range (E. coli; E. coli VIM-19, n=1): 4 mg/L
MICs range (E. coli; ESBLs, E. coli CTX-M-1, n=1): 0.12 mg/L
MICs range (E. coli; ESBLs, E. coli CTX-M-3, n=1): 0.12 mg/L
MICs range (E. coli; ESBLs, E. coli CTX-M-14, n=2): 0.12 mg/L
MICs range (E. coli; ESBLs, E. coli CTX-M-15, n=2): 0.12 mg/L
MICs range (E. coli; ESBLs, E. coli VEB-1, n=1): 0.12 mg/L
MICs range (E. coli; Plasmid mediated AmpC or chromosomal AmpC + decreased membrane permeability, E. coli ACC-1, n=1): 0.12 mg/L
MICs range (E. coli; Plasmid mediated AmpC or chromosomal AmpC + decreased membrane permeability, E. coli CMY-2, n=1): 0.12 mg/L
MICs range (E. coli; Plasmid mediated AmpC or chromosomal AmpC + decreased membrane permeability, E. coli CMY-10, n=1): 0.12 mg/L
MICs range (E. coli; Plasmid mediated AmpC or chromosomal AmpC + decreased membrane permeability, E. coli DHA-1, n=1): 0.12 mg/L
MICs range (E. coli; Plasmid mediated AmpC or chromosomal AmpC + decreased membrane permeability, E. coli Extended spectrum cephalosporinase, n=1): 0.12 mg/L
MICs range (E. coli; Plasmid mediated AmpC or chromosomal AmpC + decreased membrane permeability, E. coli Overexpressed cephalosporinase, n=1): 2 mg/L
MICs range (M. morganii): 0.5 mg/L
MICs range (P. mirabilis): 0.12 mg/L
MICs range (K. pneumoniae; ESBL + decreased membrane permeability, K. pneumoniae SHV-2a, n=1): 0.38 mg/L
MICs range (K. pneumoniae; ESBL + decreased membrane permeability, K. pneumoniae SHV-28, n=1): 1 mg/L
MICs range (K. pneumoniae; ESBLs, K. pneumoniae CTX-M-3, n=1): 0.12 mg/L
MICs range (K. pneumoniae; ESBLs, K. pneumoniae CTX-M-14, n=1): 0.12 mg/L
MICs range (K. pneumoniae; ESBLs, K. pneumoniae CTX-M-15, n=3): 0.12 mg/L
MICs range (K. pneumoniae; K. pneumoniae IMP-1, n=5): 1 to 8 mg/L
MICs range (K. pneumoniae; K. pneumoniae IMP-8, n=2): 0.5 mg/L
MICs range (K. pneumoniae; K. pneumoniae KPC-3, n=3): 1 to 8 mg/L
MICs range (K. pneumoniae; K. pneumoniae NDM-4, n=1): >32 mg/L
MICs range (K. pneumoniae; K. pneumoniae OXA-181, n=2): 0.5 to 1 mg/L
MICs range (K. pneumoniae; K. pneumoniae VIM-19, n=1): 4 mg/L
MICs range (K. pneumoniae; Plasmid mediated AmpC or chromosomal AmpC + decreased membrane permeability, K. pneumoniae DHA-1, n=1): >32 mg/L
MICs range (K. pneumoniae; Plasmid mediated AmpC or chromosomal AmpC + decreased membrane permeability, K. pneumoniae DHA-2, n=1): 0.12 mg/L
